The values that follow come from patent publication US9353149B2, “Compounds, compositions and methods for the treatment of diseases through inhibiting TGF-β activity” (Southern Research Institute, priority 2013, dated 2016).

Marks after values point to notes of the source that are not given here. Residues, ends and D or L forms follow the SMILES beside them.

Data set [1] concerns the target Recombinant latent TGF-beta incubated with TSP1 (Homo sapiens, UniProt P07996). Description: TSP1 activation of recombinant latent TGF-beta, ELISA specific for active TGF-beta. In kind it is biochemical. The settings on record: latent TGF-beta 500 pM, TSP1 48 nM, compounds 1-100 pM; read-out: Activity (IC 50). How it is done:
The assay for the IC 50 (Activity) data in Table 1 was as follows: Recombinant latent TGF-beta (500 pM) is incubated with TSP1 (48 nM) in the absence or presence of increasing concentrations of the identified compounds (1-100 pM). TGF-beta activity in the samples was measured using an ELISA specific for active TGF-beta (R&D Systems). IC50 values were calculated from the curves.
On the technique in general: An ELISA detects its analyte on a solid surface through an enzyme-linked reagent.

Data set [2] can be described thus: Plasma pharmacokinetics after single intravenous and oral administration. Format: in vivo, male Swiss Albino mice.
Data set [3] deals with human CAG-heparanase myeloma cells. Description: Systemic SCID-CAG-heparanase multiple myeloma model. The following applies: for Human serum κ / IL-6 / Serum TRAcP 5b: osmotic pump, 4 weeks. Format: in vivo, Male SCID mice. How it is done: The Table 2 below provides an analysis of the systemic SCID-CAG-heparanase model treated with increasing doses of Compound No 1 according to the present invention.
Table 2: Analyses of the Systemic SCID-CAG-Heparanase Model Treated with Increasing Doses of Compound No 1
Male SCID mice were injected via tail vein with 1.7×10^6 CAG-hpse cells and tumors allowed to establish over 2 weeks. Groups were randomized according to serum human kappa levels (n=15/group). Treatments were initiated at 2 weeks and continued for 4 weeks. Mice were treated with either saline or 0.3, 3.0, or 30 mg/kg/day of Compound No 1 peptide delivered by osmotic pumps. Pumps were replaced after 2 weeks and fresh peptide and pumps installed. *p<0.05 vs saline.

The nature of data set [4]: Plasma stability half-life. Format: in vitro ADME. From the text: Peptides comprising the amino acid sequence LSKL, including the tetrapeptide LSKL, for inhibiting TGF-β activity and the use of these peptides and certain functional derivatives thereof for the treatment of kidney disease are described in U.S. Pat. No. 6,384,189 and U.S. Pat. No. 6,458,767. It is desirable to employ small molecules such as, e.g., LSKL because they are easier to synthesize and, thus, less costly. […] Accordingly, there is a need for small molecules which affect the activation of TGF-β and which also have an extended plasma stability half-life.

Data set [5] has as its system TSP1-TGF-β activation. The settings on record: cited from earlier work.
[6] abbreviates: male, Swiss Albino, mouse, iv, 1 mg/kg.
Where [7] appears, read: male, Swiss Albino, mouse, po, 3 mg/kg.

Recombinant latent TGF-beta incubated with TSP1, sequence (P07996 19-1170): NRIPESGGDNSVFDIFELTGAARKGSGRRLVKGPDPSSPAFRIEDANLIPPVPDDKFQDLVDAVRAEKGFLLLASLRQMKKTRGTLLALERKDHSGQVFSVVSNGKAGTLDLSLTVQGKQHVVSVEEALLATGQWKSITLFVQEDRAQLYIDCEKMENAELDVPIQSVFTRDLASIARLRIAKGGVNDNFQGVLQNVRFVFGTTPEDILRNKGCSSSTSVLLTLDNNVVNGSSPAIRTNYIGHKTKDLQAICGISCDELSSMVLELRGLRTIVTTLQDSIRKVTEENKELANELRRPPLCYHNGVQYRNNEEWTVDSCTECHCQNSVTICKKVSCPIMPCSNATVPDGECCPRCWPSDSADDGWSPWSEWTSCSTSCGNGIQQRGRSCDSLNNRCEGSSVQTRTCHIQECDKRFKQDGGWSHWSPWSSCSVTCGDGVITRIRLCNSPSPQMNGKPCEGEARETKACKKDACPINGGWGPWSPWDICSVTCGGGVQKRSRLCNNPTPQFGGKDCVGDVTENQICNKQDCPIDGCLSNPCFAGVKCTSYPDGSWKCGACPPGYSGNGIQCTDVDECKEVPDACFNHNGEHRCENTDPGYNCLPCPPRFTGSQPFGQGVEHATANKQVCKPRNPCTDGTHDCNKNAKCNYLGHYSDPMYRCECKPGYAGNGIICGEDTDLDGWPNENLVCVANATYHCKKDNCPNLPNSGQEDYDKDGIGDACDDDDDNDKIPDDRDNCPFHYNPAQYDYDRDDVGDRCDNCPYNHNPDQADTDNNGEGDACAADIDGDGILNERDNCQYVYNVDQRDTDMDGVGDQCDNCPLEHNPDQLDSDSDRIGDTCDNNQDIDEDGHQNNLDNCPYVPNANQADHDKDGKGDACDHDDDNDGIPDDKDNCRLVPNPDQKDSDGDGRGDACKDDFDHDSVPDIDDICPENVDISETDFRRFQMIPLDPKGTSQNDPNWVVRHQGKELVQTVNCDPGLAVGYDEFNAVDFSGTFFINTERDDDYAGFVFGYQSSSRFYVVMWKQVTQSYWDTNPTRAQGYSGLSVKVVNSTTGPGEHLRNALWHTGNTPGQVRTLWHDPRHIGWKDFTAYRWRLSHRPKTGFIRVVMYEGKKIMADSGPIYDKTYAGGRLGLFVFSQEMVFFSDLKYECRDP

Regarding `CC(=O)N[C@@H](CO)C(=O)N[C@H](CCCCN)C(=O)N[C@@H](CC(C)C)C(N)=O` [Compound 95] (HELM PEPTIDE1{[ac].S.[dK].L.[am]}$$$$V2.0), in data set [1], the IC50 was in the range of 0.001 to 0.01 nM.
Regarding `CC(=O)N[C@@H](CO)C(=O)N[C@@H](CCCCN)C(=O)N[C@@H](CC(C)C)C(N)=O` [Compound 1] (Ac-Ser-Lys-Leu-NH2), in data set [1], the IC50 lay within 0.001 to 0.01 nM. Besides, in data set [2] (i.v., 1 mg/kg), the Co was 1025.73 ng/mL. For the same compound, in data set [2] (setting [6]), the AUC(0-inf) amounted to 1380 ng·h/mL, the AUC(0-t) was 1210 ng·h/mL, the clearance was determined as 12.1 mL/min/kg and the half-life was 637 min. The Vd in data set [2] (male, Swiss Albino, mouse, iv, 1 mg/kg, read-out: Vss) was 6.31 L/kg. The compound also came in with a bioavailability in data set [2] (male, Swiss Albino, mouse, oral 3 mg/kg vs i.v. 1 mg/kg) of 24%. Further, in data set [2] (setting [7]), the AUC(0-inf) was found to be 1070 ng·h/mL, the exposure AUC(0-t) stood at 875 ng·h/mL, the peak level (Cmax) was 208 ng/mL and the Tmax came out at 30 min. In data set [3] (0.3 mg/kg/day), the “Human serum κ” value was 5134 ± 696 ng/mL, the IL-6 turned out to be 70.2 ± 4.7 pg/mL and the “Serum TRAcP 5b” value is 3.6 +/− 0.28 U/L. In addition, in data set [3] (3.0 mg/kg/day), the “Human serum κ” value is listed as 3465 +/− 422* ng/ml, the IL-6 was 40.0 +/− 4.2* pg/ml and the “Serum TRAcP 5b” value is 2.8 +/− 0.15* U/L. Also, the “tibial bone loss (FIG. 1)” value in data set [3] (30 mg/kg dose, SCID/CAG-hpse MM model) was “reducing tibial bone loss”. In data set [3] (30 mg/kg/day), the “TRAP^+ OC/mm BS” value is given as 1.0 +/− 0.2*, the “p-Smad 2 IHC in bone marrow” value is on record as 2390 +/− 472* arbitrary units, the “Human serum κ” value is reported as 2593 +/− 443* ng/ml and the IL-6 was 31.8 +/− 4.0* pg/ml. Besides, the “Serum TRAcP 5b” value in data set [3] (30 mg/kg/day) is recorded as 2.5 +/− 0.13* U/L. Further, in data set [3] (30 mg/kg/day, n = 4), the “μCT (tibia) BV/TV” value is 0.13 +/− 0.01*, the “μCT (tibia) TbN” value is recorded as 4.03 +/− 0.28* and the “μCT (tibia) TbSp” value is 0.25 +/− 0.02*.
Regarding `CNCCCC[C@H](NC(=O)[C@H](CO)NC(C)=O)C(=O)N[C@@H](CC(C)C)C(N)=O` [Compound 98] (HELM PEPTIDE1{[ac].S.[CNCCCC[C@H](N[*:1])C(=O)[*:2]].L.[am]}$$$$V2.0), in data set [1], the IC50 fell in the range of 0.1 to 0.5 nM.
On to `CC(=O)N[C@@H](CO)C(=O)N[C@@H](CCCCN)C(=O)N(C)[C@@H](CC(C)C)C(N)=O` [Compound 10] (HELM PEPTIDE1{[ac].S.K.[meL].[am]}$$$$V2.0), for which, in data set [1], the IC50 fell in the range of 0.1 to 0.5 nM.
With `CC(=O)N[C@H](C(=O)N[C@@H](CCCCN)C(=O)N[C@@H](CC(C)C)C(N)=O)C(C)O` (some centres unmarked) [Compound 2] (HELM PEPTIDE1{[ac].[CC(O)[C@H](N[*:1])C(=O)[*:2]].K.L.[am]}$$$$V2.0), in data set [1], the IC50 lay within 0.05 to 0.1 nM.
The same measure, in the same setting: with `CC(=O)NCCCC[C@H](NC(=O)[C@H](CO)NC(C)=O)C(=O)N[C@@H](CC(C)C)C(N)=O` [Compound 99] (Ac-Ser-Lys(Ac)-Leu-NH2) the figure was 0.1 to 0.5 nM.
The same measure, in the same setting: next, `CNC(=O)[C@H](CC(C)C)NC(=O)[C@@H](CCCCN)NC(=O)[C@@H](NC(C)=O)C(C)O` (some centres unmarked) [Compound 14] (HELM PEPTIDE1{[ac].[CC(O)[C@H](N[*:1])C(=O)[*:2]].[dK].L.[CN[*:1]]}$$$$V2.0): 0.001 to 0.01 nM; `CNC(=O)[C@H](CC(C)C)NC(=O)[C@H](CCCCN)NC(=O)[C@H](CO)NC(C)=O` [Compound 13] (HELM PEPTIDE1{[ac].S.K.L.[CN[*:1]]}$$$$V2.0): 0.05 to 0.1 nM.
In the case of `CC(=O)N[C@@H](CO)C(=O)N[C@@H](CCCCN)C(=O)N[C@H](CC(C)C)C(N)=O` [Compound 96] (HELM PEPTIDE1{[ac].S.K.[dL].[am]}$$$$V2.0), the IC50 in data set [1] fell in the range of 0.05 to 0.1 nM.
For the compound `CC(C)C[C@H](NC(=O)[C@H](CCCCN)NC(=O)[C@H](CO)NC(=O)[C@@H](N)CC(C)C)C(=O)O` [LSKL, leucine-serine-lysine-leucine] (H-LSKL-OH; N-terminus and C-terminus assumed), the half-life in data set [4] is 2.1 min. Further, the necropsy findings entry in data set [5] (after 15 weeks of 30 mg/kg i.p., 3 times weekly) was “no inflammation, no tumors in all major organs, and no impairment of wound healing”. For the same compound, the “Smad signaling and dermal wound healing” value in data set [5] (systemic administration, diabetic mice) is “did not reduce Smad signaling or impair dermal wound healing”.
With `CC(=O)N[C@@H](CO)C(=O)N[C@@H](CCCCN)C(=O)N[C@@H](CC(C)C)C(=O)N(C)C` [Compound 97] (HELM PEPTIDE1{[ac].S.K.L.[CN(C)[*:1]]}$$$$V2.0), the IC50 in data set [1] was 0.1 to 0.5 nM.
Same read-out and setting: with `CC(=O)N[C@@H](CO)C(=O)N[C@@H](CCCCN(C)C)C(=O)N[C@@H](CC(C)C)C(N)=O` [Compound 22] (HELM PEPTIDE1{[ac].S.[CN(C)CCCC[C@H](N[*:1])C(=O)[*:2]].L.[am]}$$$$V2.0) the figure was 0.1 to 0.5 nM; with `CCC(=O)N[C@@H](CO)C(=O)N[C@@H](CCCCN)C(=O)N[C@@H](CC(C)C)C(N)=O` [Compound 101] (HELM PEPTIDE1{[CCC(=O)[*:2]].S.K.L.[am]}$$$$V2.0), 0.1 to 0.5 nM.
Same read-out and setting: next, `COC[C@H](NC(C)=O)C(=O)N[C@@H](CCCCN)C(=O)N[C@@H](CC(C)C)C(N)=O` [Compound 100] (Ac-Ser(Me)-Lys-Leu-NH2): 0.1 to 0.5 nM.
On to `CC(=O)N[C@@H](CO)C(=O)N[C@@H](CCCCN)C(=O)N[C@@H](CC1CC1)C(N)=O` [Compound 37] (HELM PEPTIDE1{[ac].S.K.[O=C([C@H](CC1CC1)N[*:1])[*:2]].[am]}$$$$V2.0), for which the IC50 in data set [1] is 0.05 to 0.1 nM.
Take `CC(=O)N[C@H](CO)C(=O)N[C@@H](CCCCN)C(=O)N[C@@H](CC(C)C)C(N)=O` [Compound 94] (HELM PEPTIDE1{[ac].[dS].K.L.[am]}$$$$V2.0): the IC50 in data set [1] is 0.1 to 0.5 nM.

Usually AUC(0-inf) stands for the area under the concentration-time curve extrapolated to infinity. Lower therefore signals low exposure. Broadly, the AUC(0-t) is the area under the concentration-time curve up to a stated or last time point. Usually half-life stands for how long it takes for the measured level to halve. The low end stands for rapid decline, the high end for slow decline. Broadly, the bioavailability is the share of a dose that reaches the circulation, judged against a reference dose that is usually intravenous. One may read the Cmax as the peak of the concentration-time curve. For orientation: Tmax means the time from dosing to the highest level.
